Data: patent US20240116946A1 (Gilead Sciences, Inc., priority 2022, published 2024)
Where two headings read alike, the source gives them in different places.

What was measured:
[1] = target: recombinant SARS-CoV-2 Main protease (Mpro) (Severe acute respiratory syndrome coronavirus 2 (2019-nCoV) (SARS-CoV-2), UniProt P0DTD1); test: Cov Mpro Biochemical IC50 Assay
SARS-CoV-2-NLuc = test: microbe, parasite or virus in culture; assay type: cell-based, SARS Coronavirus 2
[2] = recombinant SARS-CoV-2 Mpro 7.5 nM, fluorogenic peptide substrate 40 μM, read-out: MPro IC50
[3] = Severe acute respiratory syndrome coronavirus, 48 h, read-out: MPro EC50
[4] = recombinant SARS-CoV-2 Mpro, fluorogenic peptide substrate, read-out: MPro IC50
[5] = Severe acute respiratory syndrome coronavirus, 48 h; read-out: MPro EC50

| Molecule | IC50 [1, 2] | EC50 (SARS-CoV-2-NLuc; [3]) | other results |
| --- | --- | --- | --- |
| COc1cc(-c2cc3[nH]c(=O)n(-c4cncc5nn(C)c(C)c45)c(=O)c3s2)c(Cl)cc1F [Example 754] | 9.21 nM | 76.3 nM |  |
| COc1ccc(Cl)c(-c2cc3[nH]c(=O)n(-c4cncc5ccc(N6CCn7nnc(C)c7C6)cc45)c(=O)c3s2)c1 [Example 606] | < 2.54 nM | 28.1 nM |  |
| COc1cc(Cl)c(-c2ccc3c(=O)n(-c4cncc5ccccc45)c(=O)[nH]c3c2)cc1OC [Example 255] |  | 332 nM | IC50 [1, 4]: 307 nM |
| COc1cc(-c2cc3c(s2)c(=O)n(-c2cncc(C#CC(C)(C)S(C)(=O)=O)c2)c(=O)n3CCC#N)c(Cl)cc1F [Example 1039] | 11.7 nM | 57.1 nM |  |
| Cc1cncc(-n2c(=O)c3sc(-c4ccccc4C#N)cc3n(CCC#N)c2=O)c1 [Example 875] | 9.81 nM |  | EC50 (SARS-CoV-2-NLuc; [5]): 32.4 nM |
| Cc1nnn(C)c1-c1cccc(Cl)c1-c1ccc2c(=O)n(-c3cncc4ccccc34)c(=O)[nH]c2c1 [Example 313] |  | 145 nM | IC50 [1, 4]: 40.8 nM |
| COCCn1c(=O)n(-c2cncc3cnn(C)c23)c(=O)c2sc(-c3cc(OC)c(F)cc3Cl)cc21 [Example 1069] | 38.9 nM | 130 nM |  |
| Cc1ccc2nn(C)cc2c1-c1cc2[nH]c(=O)n(-c3cncc4cnn(C)c34)c(=O)c2s1 [Example 1015] | 50.9 nM | 597 nM |  |
| CN1CCOc2cc(-c3cccc(Cl)c3-c3ccc4c(=O)n(-c5cncc6ccccc56)c(=O)[nH]c4c3)ccc21 [Example 314] |  | 72.9 nM | IC50 [1, 4]: 456 nM |
| O=c1[nH]c2cc(-c3c(Cl)cccc3-c3cncc(N4CCOCC4)c3)ccc2c(=O)n1-c1cncc2ccccc12 [Example 279] |  | 7.65 nM | IC50 [1, 4]: 5.27 nM |
| COc1cc(-c2cc3c(s2)c(=O)n(-c2cncc4ccccc24)c(=O)n3CCC#N)c(C#N)cc1F (single isomer, unassigned) [Example 968, 2-(1-(2-cyanoethyl)-3-(isoquinolin-4-yl)-2,4-dioxo-1,2,3,4-tetrahydrothieno[3,2-d]pyrimidin-6-yl)-5-fluoro-4-methoxybenzonitrile] | 89.1 nM |  | EC50 (SARS-CoV-2-NLuc; read-out: MPro EC50): 96 nM |
| COc1nn(C)cc1-c1cccc(Cl)c1-c1ccc2c(=O)n(-c3cncc4ccccc34)c(=O)[nH]c2c1 [Example 273] |  | 6.41 nM | IC50 [1, 4]: 14.9 nM |
| COc1cc(-c2cc3c(s2)c(=O)n(-c2cncc4nnn(C5CC5)c24)c(=O)n3CC2(C#N)CC2)c(Cl)cc1F [Example 692] | 4.35 nM | 2.44 nM |  |
| O=c1[nH]c2cc(-c3ccccc3Cl)sc2c(=O)n1-c1cncc2c1cnn2CC(F)(F)F [Example 492] | > 50000 nM | 4840 nM |  |
| Cc1cncc(-n2c(=O)c3sc(-c4cc(F)ccc4C#N)cc3n(CCC#N)c2=O)c1 [Example 881] | 11.7 nM |  | EC50 (SARS-CoV-2-NLuc; [5]): 91.9 nM |
| N#Cc1ccccc1-c1cnc2c(=O)n(-c3cncc4ccccc34)c(=O)[nH]c2c1 [Example 69] |  | 4210 nM | IC50 [1, 4]: 53.1 nM |
| Cn1ncc2cncc(-n3c(=O)c4sc(-c5ccccc5Cl)cc4n(CCC#N)c3=O)c21 [Example 781] | 5.06 nM | 4.81 nM |  |
| COc1cc(-c2cc3c(s2)c(=O)n(-c2cncc4c2c(C)nn4C)c(=O)n3CCC#N)c(Cl)cc1F (single isomer, unassigned) [Example 1044, 3-(6-(2-chloro-4-fluoro-5-methoxyphenyl)-3-(1,3-dimethyl-1H-pyrazolo[3,4-c]pyridin-4-yl)-2,4-dioxo-3,4-dihydrothieno[3,2-d]pyrimidin-1(2H)-yl)propanenitrile] | 3.55 nM |  | EC50 (SARS-CoV-2-NLuc; read-out: MPro EC50): 3.21 nM |
| Cn1ncc2cncc(-n3c(=O)c4sc(-c5ccccc5C#N)cc4n(CCC#N)c3=O)c21 (single isomer, unassigned) [Example 961, 2-(1-(2-cyanoethyl)-3-(1-methyl-1H-pyrazolo[4,3-c]pyridin-7-yl)-2,4-dioxo-1,2,3,4-tetrahydrothieno[3,2-d]pyrimidin-6-yl)benzonitrile] | 6.18 nM |  | EC50 (SARS-CoV-2-NLuc; read-out: MPro EC50): 19.6 nM |
| COc1cc(-c2cc3c(s2)c(=O)n(-c2cncc4cccnc24)c(=O)n3CC#N)c(Cl)cc1F [Example 708] | 4.41 nM | 8.71 nM |  |
| Cc1c(Cl)cncc1-n1c(=O)c2sc(-c3cc(F)c(F)cc3Cl)cc2n(CCC#N)c1=O [Example 847] | 8.09 nM |  | EC50 (SARS-CoV-2-NLuc; [5]): 19.8 nM |
| Cc1ccc2cncc(-n3c(=O)[nH]c4cc(-c5ccccc5Cl)sc4c3=O)c2c1 [Example 106, 6-(2-chlorophenyl)-3-(6-methylisoquinolin-4-yl)thieno[3,2-d]pyrimidine-2,4(1H,3H)-dione] |  |  | IC50 [1, 4]: 23.7 nM; EC50 (SARS-CoV-2-NLuc; [5]): 73 nM |
| COc1cc(-c2cc3c(s2)c(=O)n(-c2cncc4nn(C)c(C)c24)c(=O)n3CCC#N)c(Cl)cc1F (single isomer, unassigned) [Example 1042, 3-(6-(2-chloro-4-fluoro-5-methoxyphenyl)-3-(2,3-dimethyl-2H-pyrazolo[3,4-c]pyridin-4-yl)-2,4-dioxo-3,4-dihydrothieno[3,2-d]pyrimidin-1(2H)-yl)propanenitrile] | > 1000 nM |  | EC50 (SARS-CoV-2-NLuc; read-out: MPro EC50): > 1000 nM |
| Cc1cc(-c2cccc(Cl)c2-c2ccc3c(=O)n(-c4cncc5ccccc45)c(=O)[nH]c3c2)cc(C#N)n1 [Example 317] |  | 4.97 nM | IC50 [1, 4]: 11 nM |
| COc1cc(-c2cc3[nH]c(=O)n(-c4cncc5c4n(C)c(=O)n5C)c(=O)c3s2)c(Cl)cc1F [Example 750] | 7.76 nM | 36.6 nM |  |

| Molecule | IC50 [1, 2] | EC50 (SARS-CoV-2-NLuc; [3]) | other results |
| --- | --- | --- | --- |
| COc1cnc(Cl)c(-c2cc3c(s2)c(=O)n(-c2cncc(C(F)F)c2)c(=O)n3CCC#N)c1 [Example 889] | 14.2 nM |  | EC50 (SARS-CoV-2-NLuc; [5]): 64.8 nM |
| N#CCCn1c(=O)n(-c2cncc3ccccc23)c(=O)c2sc(-c3cc(F)c(F)cc3Cl)cc21 [Example 826] | 8.26 nM | 23.9 nM |  |
| COc1cc(-c2cc3c(s2)c(=O)n(-c2cncc4ccccc24)c(=O)n3CC2(CC#N)CC2)c(Cl)cc1F [Example 661] | 29.5 nM | 37 nM |  |
| COc1cc(-c2cc3c(s2)c(=O)n(-c2cncc4nn(C)c(C)c24)c(=O)n3CCC#N)c(Cl)cc1F (single isomer, unassigned) [Example 1041, 3-(6-(2-chloro-4-fluoro-5-methoxyphenyl)-3-(2,3-dimethyl-2H-pyrazolo[3,4-c]pyridin-4-yl)-2,4-dioxo-3,4-dihydrothieno[3,2-d]pyrimidin-1(2H)-yl)propanenitrile] | 2.99 nM |  | EC50 (SARS-CoV-2-NLuc; read-out: MPro EC50): 5.72 nM |
| COc1ccc(Cl)c(-c2cc3[nH]c(=O)n(-c4cncc5cc(F)ccc45)c(=O)c3s2)c1 [Example 580, 6-(2-chloro-5-methoxyphenyl)-3-(7-fluoroisoquinolin-4-yl)thieno[3,2-d]pyrimidine-2,4(1H,3H)-dione] | 7.53 nM | 70.9 nM |  |
| Cn1cnc(Cn2c(=O)n(-c3cncc(C4CC4)c3)c(=O)c3sc(-c4ccccc4Cl)cc32)n1 [Example 621] | 495 nM | 710 nM |  |
| CS(=O)(=O)c1cncc(-c2cccc(Cl)c2-c2ccc3c(=O)n(-c4cncc5ccccc45)c(=O)[nH]c3c2)c1 [Example 203] |  | 26.9 nM | IC50 [1, 4]: 11.1 nM |
| O=c1[nH]c2c(Cl)c(-c3ccccc3Cl)ccc2c(=O)n1-c1cncc2ccccc12 [Example 79] |  | 12100 nM | IC50 [1, 4]: 14000 nM |
| N#CCCn1c(=O)n(-c2cncc3nnn(C4CC4)c23)c(=O)c2sc(-c3ccccc3Cl)cc21 [Example 938] | 17.6 nM | 77 nM |  |
| Cn1nnc2cncc(-n3c(=O)c4sc(-c5ccccc5C#N)cc4n(CCC#N)c3=O)c21 [Example 877] | 54.1 nM | 216 nM |  |
| 5-fluoro-2-[6-fluoro-3-(4-isoquinolyl)-2,4-dioxo-1H-quinazolin-7-yl]-4-methoxy-benzonitrile [Example 517] | 9.51 nM |  | EC50 (SARS-CoV-2-NLuc; read-out: MPro EC50): 35.9 nM |
| COc1cc(-c2cc3[nH]c(=O)n(-c4cncc5ncc(C)n45)c(=O)c3s2)c(Cl)cc1F [Example 1082] | 18 nM | 91.1 nM |  |
| COc1ccc(Cl)c(-c2cc3[nH]c(=O)n(-c4cncc5ccccc45)c(=O)c3cc2F)c1 [Example 211] |  |  | IC50 [1, 4]: 55.5 nM; EC50 (SARS-CoV-2-NLuc; [5]): 70.4 nM |
| N#CCCn1c(=O)n(-c2cncc(Cl)c2)c(=O)c2sc(-c3ccc(F)cc3Cl)cc21 [Example 787] | 13 nM | 33.2 nM |  |
| COc1cnc(Cl)c(-c2cc3c(s2)c(=O)n(-c2cncc4ccccc24)c(=O)n3CCC#N)c1 [Example 942] | 12 nM | 13.2 nM |  |
| COc1cc(-c2cc3c(s2)c(=O)n(-c2cncc(C4CC4)c2)c(=O)n3CCC#N)c(Cl)cc1F [Example 924] | 2.52 nM | 5.31 nM |  |
| COc1cc(-c2cc3[nH]c(=O)n(-c4cnccc4C)c(=O)c3s2)c(Cl)cc1F [Example 713] |  |  | IC50 ([1]; MPro IC50, recombinant SARS-CoV-2 Mpro 7.5 nM, fluorogenic peptide substrate 40 μM): 9.18 nM; EC50 (SARS-CoV-2-NLuc; [5]): 15 nM |
| Cc1cncc(-n2c(=O)c3sc(-c4ccccc4C#N)cc3n(CC3(C#N)CC3)c2=O)c1 [Example 802] | 3.02 nM |  | EC50 (SARS-CoV-2-NLuc; [5]): 7.09 nM |
| O=c1[nH]c2cc(-c3cccnc3)sc2c(=O)n1-c1cncc2ccccc12 [Example 5] |  | 1790 nM | IC50 [1, 4]: 342 nM |
| Cc1nccnc1COc1cccc(Cl)c1-c1ccc2c(=O)n(-c3cncc4ccccc34)c(=O)[nH]c2c1 [Example 94] |  | 269 nM | IC50 [1, 4]: 210 nM |
| COc1cc(-c2cc3[nH]c(=O)n(-c4cc(C(F)(F)F)cnn4)c(=O)c3s2)c(Cl)cc1F [Example 748] | 50.2 nM |  | EC50 (SARS-CoV-2-NLuc; [5]): 86.5 nM |
| COc1ccc(C#N)c(-c2cc3[nH]c(=O)n(-c4cncc5ccc(N6CCC(F)(F)C6)cc45)c(=O)c3s2)c1 [Example 418] | 21.4 nM | 126 nM |  |
| COc1cc(-c2cc3c(s2)c(=O)n(-c2cnccn2)c(=O)n3CCC#N)c(Cl)cc1F [Example 893] | 22.1 nM | 136 nM |  |
| COc1cc(-c2cc3c(s2)c(=O)n(-c2cncc(Cl)c2Cl)c(=O)n3CCC#N)c(Cl)cc1F [Example 928] | 12.2 nM | 16.2 nM |  |
